Assay results from publication PMC5008840, “α-Mangostin Extraction from the Native Mangosteen (Garcinia mangostana L.) and the Binding Mechanisms of α-Mangostin to HSA or TRF” (PLoS ONE, 2016).

Key:
[1] = molecular target: T1, human transferrin (TRF) (Homo sapiens, UniProt P02787); assay: intrinsic fluorescence quenching titration; type: binding; settings: 298 K; 0.1 M Tris-HCl pH 7.3, 0.1 M NaCl; 10 μM protein; excitation 282 nm; n = 1.09; double-log
T1 construct: gene TF; mature glycoprotein, 679 residues, 19 disulfide bonds, about 77 kD
Text: intrinsic fluorescence quenching titration on human transferrin (TRF)

[2] = molecular target: T2, human serum albumin (HSA) (Homo sapiens, UniProt P02768); assay: intrinsic fluorescence quenching titration; type: binding; settings: 298 K; 0.1 M Tris-HCl pH 7.3, 0.1 M NaCl; 10 μM protein; excitation 282 nm; n = 1.15; double-log
T2 construct: gene ALB; mature protein, 585 residues, 17 disulfide bonds, about 67 kD
Text: intrinsic fluorescence quenching titration on human serum albumin (HSA)

T1 sequence (P02787 20-698): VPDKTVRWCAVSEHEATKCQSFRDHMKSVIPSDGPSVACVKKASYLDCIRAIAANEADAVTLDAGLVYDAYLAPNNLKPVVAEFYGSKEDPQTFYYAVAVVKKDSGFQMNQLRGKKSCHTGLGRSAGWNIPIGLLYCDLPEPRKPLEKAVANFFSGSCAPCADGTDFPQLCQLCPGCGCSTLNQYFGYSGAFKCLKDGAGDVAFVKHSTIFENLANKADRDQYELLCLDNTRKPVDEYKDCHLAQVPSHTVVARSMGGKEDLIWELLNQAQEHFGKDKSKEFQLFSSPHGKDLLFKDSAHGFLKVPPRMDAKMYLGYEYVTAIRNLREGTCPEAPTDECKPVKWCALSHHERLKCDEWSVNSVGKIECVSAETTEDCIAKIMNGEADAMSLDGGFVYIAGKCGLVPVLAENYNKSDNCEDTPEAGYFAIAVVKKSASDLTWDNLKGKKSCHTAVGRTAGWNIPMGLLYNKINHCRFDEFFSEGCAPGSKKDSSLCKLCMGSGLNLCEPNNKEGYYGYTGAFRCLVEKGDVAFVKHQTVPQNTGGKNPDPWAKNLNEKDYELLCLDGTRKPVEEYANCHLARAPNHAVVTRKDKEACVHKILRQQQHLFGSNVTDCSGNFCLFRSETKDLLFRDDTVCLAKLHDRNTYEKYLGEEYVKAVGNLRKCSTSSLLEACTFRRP
T2 sequence (P02768 25-609): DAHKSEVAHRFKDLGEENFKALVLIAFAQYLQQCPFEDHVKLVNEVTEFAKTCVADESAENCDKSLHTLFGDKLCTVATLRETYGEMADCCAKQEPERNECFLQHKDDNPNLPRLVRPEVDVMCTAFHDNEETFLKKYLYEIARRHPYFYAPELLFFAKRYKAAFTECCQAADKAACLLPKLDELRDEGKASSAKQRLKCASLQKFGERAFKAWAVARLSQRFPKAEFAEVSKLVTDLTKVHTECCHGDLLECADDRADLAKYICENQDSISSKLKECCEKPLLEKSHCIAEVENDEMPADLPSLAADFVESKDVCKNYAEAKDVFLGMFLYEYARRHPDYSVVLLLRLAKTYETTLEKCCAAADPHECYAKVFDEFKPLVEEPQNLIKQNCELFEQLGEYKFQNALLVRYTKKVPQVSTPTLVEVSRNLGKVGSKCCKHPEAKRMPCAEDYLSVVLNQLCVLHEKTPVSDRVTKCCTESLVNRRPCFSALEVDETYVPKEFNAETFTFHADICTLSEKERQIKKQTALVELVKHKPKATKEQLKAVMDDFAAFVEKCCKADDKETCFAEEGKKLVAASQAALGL

## COc1c(O)cc2oc3cc(O)c(CC=C(C)C)c(O)c3c(=O)c2c1CC=C(C)C [α-mangostin, 1,3,6-trihydroxy-7-methoxy-2,8-bis(3-methyl-2-butenyl)-9H-xanthen-9-one]
[1]
  K: 146520 L/mol
[2]
  K: 648320 L/mol
